Reference: patent US3998808A, “Compositions of matter D-hetero-1,1-(α-thiocyanoacetyl) compounds” (Velsicol Chemical Corporation, priority 1971, dated 1976)
Like-named read-outs stand apart in the source and are kept apart here.

What was measured:
Format in all cases: in vivo
[1] = system: pea aphid (Acyrthosiphon pisum); test: whole plant or invertebrate; conditions: sprayed at 3500 ppm, aqueous emulsion of an acetone solution, 48 hours, in comparison to a control, read-out: mortality of the pea aphids
Excerpt: The insecticidal activity of the compounds of this invention was further illustrated in an experiment for the control of the pea aphid (Acyrthosiphon pisum). In this experiment a ten day old Laxton pea plant contained in a small plastic pot was infested with ten adult pea aphids. The plant and pea aphids were then sprayed with the test compound formulated as an aqueous emulsion of an acetone solution, at a concentration of 3500 ppm. The infested plants were then placed in a holding chamber maintained at a constant temperature for a period of 48 hours. After this time the mortality of the aphids was determined and rated on a percent basis in comparison to a control. In this experiment the compounds 1-(α-thiocyanoacetyl) pyrrolidine and 1-(α-thiocyanoacetyl)-2,6-dimethylpiperidine gave 100% mortality of the pea aphids.

[2] = system: leaf rust of wheat (Puccinia rubigo-vera); test: protection of wheat against leaf rust of wheat; conditions: wheat plants sprayed with 1000 ppm solutions before inoculation; about 8 days in greenhouse; in comparison with untreated controls
Procedure: In one experiment carried out for the protection of wheat against leaf rust of wheat (Puccinia rubigo-vera), 6 day old wheat plants were sprayed with 1000 ppm solutions of the test compounds. After the spray film had dried, the plants were inoculated by shaking a 9 to 13 day old leaf rust of wheat culture over the foliage. Immediately after inoculation the plants were placed in a 20° C. moist chamber overnight. The plants were then transferred to a greenhouse and kept there for a period of about 8 days. After this time the extent of the disease was observed and rated in comparison with untreated controls.

[3] = system: housefly (Musca domestica); test: housefly knockdown test; conditions: sprayed with formulation containing 3500 ppm; knockdown after 30 minutes, in comparison to a control
Procedure: In one experiment, designated as the housefly knockdown test, 50, 3-day-old, unsexed, adult houseflies were anesthetized with carbon dioxide gas and placed into a fine mesh wire cage. The flies were allowed to recover completely from the effects of the carbon dioxide gas and were then sprayed with a test formulation containing 3500 ppm of the test compound. After 30 minutes the knockdown value of the test compound was determined. Knockdown is considered as an individual fly that is unable to move its body length, and the knowndown value is given as a percent of down flies based on the number of down flies in comparison to a control.

[4] = system: housefly (Musca domestica); test: housefly topical test; conditions: read-out: % Control Housefly Topical Test
Procedure: In another experiment designated as the housefly topical test, each of fifty flies was contacted with a test compound by applying […] of test formulation containing 3500 ppm of active chemical to the dorsum of its thorax. The flies were then placed in a wire mesh cage where they were supplied with sugar syrup. At the end of a 24 hour period the mortality of the flies was observed and rated in comparison to a control.

[5] = 1 ml of formulation containing 3500 ppm applied to dorsum of thorax, mortality after 24 hours, in comparison to a control

Structure (SMILES) | mortality at 3500 ppm [1] [%] | % Control (leaf rust of wheat) [2] [%] | % Control Housefly Knockdown Test [3] [%] | mortality at 3500 µg/mL [4, 5] [%] | mortality at 3500 µg/mL ([4]; 24 h) [%]
N#CSCC(=O)N1CCCC1 [1-(γ-Thiocyanoacetyl) pyrrolidine, 1-(α-thiocyanoacetyl) pyrrolidine] | 100 | 98 | – | – | –
CC1CCN(C(=O)CSC#N)CC1 [1-(α-thiocyanoacetyl)-4-pipecoline] | – | 99 | 100 | 100 | –
N#CSCC(=O)N1CCCCCC1 [1-(α-thiocyanoacetyl) hexamethylenimine] | – | – | 94 | 31 | –
CC1CCCC(C)N1C(=O)CSC#N (stereo not drawn) [1-(α-thiocyanoacetyl)-2,6-dimethylpiperidine] | 100 | 96 | 92 | – | 94
CC1CCCN(C(=O)CSC#N)C1 (stereo not drawn) [1-(α-thiocyanoacetyl)-3-pipecoline] | – | 90 | 100 | 100 | –
CC1CCC(C)N1C(=O)CSC#N (stereo not drawn) [1-(α-thiocyanoacetyl)-2,5-dimethylpyrrolidine] | – | – | 100 | 100 | –
